Read-outs that look alike come from different tables or passages of the source. Where a SMILES comes first, the peptide text is derived from it.
Columns and labels:
[1] = test system: Escherichia coli ATCC 25922
Description: (§1) Lyophilized peptides were weighed on a Microbalance (Mettler MT5) and dissolved in sterile water to a final concentration of 1 mg/mL. Stock solutions were kept at +4° C., light protected.
(§2) Colonies of the microorganisms were diluted in saline (0.85%, NaCl) and adjusted using a McFarland reader (bioMérieux SA, Marcy-l'Etoile, France) to 0.5 McFarland standard. Subsequently, the bacterial suspension was diluted in Mueller-Hinton II (MHII, cation adjusted) broth to give approximately 5×10^5 colony forming units (CFU/mL).
(§3) 10^6 colony forming units (CFU)/mL. Aliquots (90 μl) of inoculate were added to 10 μl of water+P-80 (Polysorbate 80, 0.002% final concentration) containing the peptide in serial two-fold dilutions at 10 fold final concentration. The following microorganisms were used to determine antibiotic selectivity of the peptides: Escherichia coli ATCC 25922, Escherichia coli MCR-1 Af 45 and Klebsiella pneumoniae SSI3010.

[2] = test system: Klebsiella pneumoniae SSI3010
Description: as §1, §2, §3

[3] = test system: human red blood cells (hRBC); type: cell-based; conditions: red cells of human, 1 h, 0.2 g/L
Description: as §1
The peptides were tested for their hemolytic activity against human red blood cells (hRBC). Fresh hRBC were washed three times with phosphate buffered saline (PBS) and centrifuged for 5 min at 3000×g. Compounds (200 μg/mL) were incubated with 20% hRBC (v/v) for 1 h at 37° C. and shaking at 300 rpm. A value of 0% and 100% cell lyses, respectively, was determined by incubation of hRBC in the presence of PBS and 2.5% Triton X-100 in H2O, respectively. The samples were centrifuged, the supernatants were 8-fold diluted in PBS buffer and the optical densities (OD) were measured at 540 nm. The 100% lyses value (OD540H2O) gave an OD540 of approximately 0.5-1.0.
Percent hemolysis was calculated as follows: (OD540peptide/OD540H2O)×100%.

[4] = test system: Escherichia coli MCR-1 Af 45; conditions: Mueller-Hinton broth II, no visible growth after 18-20 hours at 35° C.
Description: as §1, §2, §3

[5] = Mueller-Hinton broth II, no visible growth after 18-20 hours at 35° C.

| Compound | Escherichia coli ATCC 25922 MIC [1, 5] [µg/mL] | Klebsiella pneumoniae SSI3010 MIC [2, 5] [µg/mL] | Hemolysis at 0.2 g/L [3] [%] | Klebsiella pneumoniae SSI3010 MIC ([2]; SSI3010) [µg/mL] | Escherichia coli ATCC 25922 MIC ([1]; ATCC 25922) [µg/mL] | Escherichia coli MCR-1 Af 45 MIC [4] [µg/mL] |
| --- | --- | --- | --- | --- | --- | --- |
| CCCC[C@H](NC(=O)[C@H](CCCNC(=N)N)NC(=O)[C@H](CCN)NC(=O)[C@@H]1CSSC(C)(C)[C@H](NC(=O)[C@H](Cc2ccc(O)cc2)NC(=O)[C@@H](NC(=O)[C@@H](NC(=O)[C@@H]2C[C@@H](N)CN2C(=O)[C@@H](N)C(C)C)[C@@H](C)CC)[C@@H](C)CC)C(=O)N[C@@H](CC(N)=O)C(=O)N[C@@H](CCCNC(=N)N)C(=O)N[C@@H](CCCNC(=N)N)C(=O)N[C@@H]([C@@H](C)O)C(=O)N[C@H](CCN)C(=O)N[C@@H](CCCCN)C(=O)N1)C(=O)O [Example 2, Val-Pro((4R)NH2)-Ile-Ile-Tyr-Pen-Asn-Arg-Arg-Thr-^DDab-Lys-Cys-Dab-Arg-Nle] (HELM PEPTIDE1{V.[N[C@@H]1C[C@@H](C(=O)[*:2])N([*:1])C1].I.I.Y.[Pen].N.R.R.T.[NCC[C@@H](N[*:1])C(=O)[*:2]].K.C.[Dab].R.[Nle]}$PEPTIDE1,PEPTIDE1,6:R3-13:R3$$$V2.0) | 0.0625 | 0.125 | 0 |  |  |  |
| CC[C@H](C)[C@H](NC(=O)[C@@H](NC(=O)[C@@H]1CCCN1C(=O)[C@@H](N)C(C)C)[C@@H](C)CC)C(=O)N[C@@H](Cc1ccc(O)cc1)C(=O)N[C@@H]1C(=O)N[C@@H](CC(N)=O)C(=O)N[C@@H](CCCNC(=N)N)C(=O)N[C@@H](CCN)C(=O)N[C@@H]([C@@H](C)O)C(=O)N[C@H](CCN)C(=O)N[C@@H](CCCCN)C(=O)N[C@H](C(=O)N[C@@H](CCN)C(=O)N[C@@H](CCCNC(=N)N)C(=O)N[C@@H](Cc2ccc(O)cc2)C(=O)O)CSSC1(C)C [Example 7, Val-Pro-Ile-Ile-Tyr-Pen-Asn-Arg-Dab-Thr-^DDab-Lys-Cys-Dab-Arg-Tyr] (HELM PEPTIDE1{V.P.I.I.Y.[Pen].N.R.[Dab].T.[NCC[C@@H](N[*:1])C(=O)[*:2]].K.C.[Dab].R.Y}$PEPTIDE1,PEPTIDE1,6:R3-13:R3$$$V2.0) | 0.0625 | 0.125 | 0 |  |  |  |
| CC[C@H](C)[C@H](NC(=O)[C@@H](NC(=O)[C@@H]1C[C@@H](O)CN1C(=O)[C@@H](N)C(C)C)[C@@H](C)CC)C(=O)N[C@@H](Cc1ccc(O)cc1)C(=O)N[C@@H]1C(=O)N[C@@H](CC(N)=O)C(=O)N[C@@H](CCCNC(=N)N)C(=O)N[C@@H](CCN)C(=O)N[C@@H]([C@@H](C)O)C(=O)N[C@H](CCN)C(=O)N[C@@H](CCCCN)C(=O)N[C@H](C(=O)N[C@@H](CCN)C(=O)N[C@@H](CCCNC(=N)N)C(=O)N[C@@H](Cc2ccc(O)cc2)C(=O)O)CSSC1(C)C [Example 14, Val-Hyp-Ile-Ile-Tyr-Pen-Asn-Arg-Dab-Thr-^DDab-Lys-Cys-Dab-Arg-Tyr] (HELM PEPTIDE1{V.[Hyp].I.I.Y.[Pen].N.R.[Dab].T.[NCC[C@@H](N[*:1])C(=O)[*:2]].K.C.[Dab].R.Y}$PEPTIDE1,PEPTIDE1,6:R3-13:R3$$$V2.0) | 0.125 |  | 0 | 0.25 |  |  |
| CC[C@H](C)[C@H](NC(=O)[C@@H](NC(=O)[C@@H]1CCCN1C(=O)[C@@H](NC(=N)N)C(C)C)[C@@H](C)CC)C(=O)N[C@@H](Cc1ccc(O)cc1)C(=O)N[C@@H]1C(=O)N[C@@H](CC(N)=O)C(=O)N[C@@H](CCCNC(=N)N)C(=O)N[C@@H](CCN)C(=O)N[C@@H]([C@@H](C)O)C(=O)N[C@H](CCN)C(=O)N[C@@H](CCCCN)C(=O)N[C@H](C(=O)N[C@@H](CCN)C(=O)N[C@@H](CCCNC(=N)N)C(=O)N[C@@H](Cc2ccc(O)cc2)C(=O)O)CSSC1(C)C [Example 54, Gua-Val-Pro-Ile-Ile-Tyr-Pen-Asn-Arg-Dab-Thr-^DDab-Lys-Cys-Dab-Arg-Tyr] (HELM PEPTIDE1{[CC(C)[C@H](NC(=N)N)C(=O)[*:2]].P.I.I.Y.[Pen].N.R.[Dab].T.[NCC[C@@H](N[*:1])C(=O)[*:2]].K.C.[Dab].R.Y}$PEPTIDE1,PEPTIDE1,6:R3-13:R3$$$V2.0) | 0.125 | 0.125 | 0 |  |  |  |
| CC[C@H](C)[C@H](NC(=O)[C@@H](NC(=O)[C@@H]1C[C@@H](O)CN1C(=O)[C@@H](NC(=N)N)C(C)C)[C@@H](C)CC)C(=O)N[C@@H](Cc1ccc(O)cc1)C(=O)N[C@@H]1C(=O)N[C@@H](CC(N)=O)C(=O)N[C@@H](CCCNC(=N)N)C(=O)N[C@@H](CCN)C(=O)N[C@@H]([C@@H](C)O)C(=O)N[C@H](CCN)C(=O)N[C@@H](CCCCN)C(=O)N[C@H](C(=O)N[C@@H](CCN)C(=O)N[C@@H](CCCNC(=N)N)C(=O)N[C@@H](Cc2ccc(O)cc2)C(=O)O)CSSC1(C)C [Example 56, Gua-Val-Hyp-Ile-Ile-Tyr-Pen-Asn-Arg-Dab-Thr-^DDab-Lys-Cys-Dab-Arg-Tyr] (HELM PEPTIDE1{[CC(C)[C@H](NC(=N)N)C(=O)[*:2]].[Hyp].I.I.Y.[Pen].N.R.[Dab].T.[NCC[C@@H](N[*:1])C(=O)[*:2]].K.C.[Dab].R.Y}$PEPTIDE1,PEPTIDE1,6:R3-13:R3$$$V2.0) | 0.03125 | 0.0625 | 0 |  |  |  |
| CC[C@H](C)[C@H](NC(=O)[C@@H](NC(=O)[C@@H]1C[C@@H](O)CN1C(=O)[C@@H](N)C(C)C)[C@@H](C)CC)C(=O)N[C@@H](Cc1ccc(O)cc1)C(=O)N[C@@H]1C(=O)N[C@@H](CC(N)=O)C(=O)N[C@@H](CCCNC(=N)N)C(=O)N[C@@H](CCN)C(=O)N[C@@H]([C@@H](C)O)C(=O)N[C@H](CCN)C(=O)N[C@@H](CCCCN)C(=O)N[C@H](C(=O)N[C@@H](CCN)C(=O)N[C@@H](CCCNC(N)=O)C(=O)N[C@@H](Cc2ccc(O)cc2)C(=O)O)CSSC1(C)C [Example 73, Val-Hyp-Ile-Ile-Tyr-Pen-Asn-Arg-Dab-Thr-^DDab-Lys-Cys-Dab-Cit-Tyr] (HELM PEPTIDE1{V.[Hyp].I.I.Y.[Pen].N.R.[Dab].T.[NCC[C@@H](N[*:1])C(=O)[*:2]].K.C.[Dab].[Cit].Y}$PEPTIDE1,PEPTIDE1,6:R3-13:R3$$$V2.0) |  |  | <1 | 0.5 | 0.5 | 0.25 |
| CC[C@H](C)[C@H](NC(=O)[C@@H](NC(=O)[C@@H]1C[C@@H](O)CN1C(=O)[C@@H](N)C(C)C)[C@@H](C)CC)C(=O)N[C@@H](Cc1ccc(O)cc1)C(=O)N[C@@H]1C(=O)N[C@@H](CC(N)=O)C(=O)N[C@@H](CCCNC(=N)N)C(=O)N[C@@H](CCN)C(=O)N[C@@H]([C@@H](C)O)C(=O)N[C@H](CCN)C(=O)N[C@@H](CCCCN)C(=O)N[C@H](C(=O)N[C@@H](CCN)C(=O)N[C@@H](CCN)C(=O)N[C@@H](Cc2ccc(O)cc2)C(=O)O)CSSC1(C)C [Example 74, Val-Hyp-Ile-Ile-Tyr-Pen-Asn-Arg-Dab-Thr-^DDab-Lys-Cys-Dab-Dab-Tyr] (HELM PEPTIDE1{V.[Hyp].I.I.Y.[Pen].N.R.[Dab].T.[NCC[C@@H](N[*:1])C(=O)[*:2]].K.C.[Dab].[Dab].Y}$PEPTIDE1,PEPTIDE1,6:R3-13:R3$$$V2.0) |  |  | <1 | 0.25 | 0.125 | 0.0625 |
| CC[C@H](C)[C@H](NC(=O)[C@@H](NC(=O)[C@@H]1C[C@@H](O)CN1C(=O)[C@@H](N)C(C)C)[C@@H](C)CC)C(=O)N[C@@H](Cc1ccc(O)cc1)C(=O)N[C@@H]1C(=O)N[C@@H](CC(N)=O)C(=O)N[C@@H](CCCNC(=N)N)C(=O)N[C@@H](CCN)C(=O)N[C@@H](CO)C(=O)N[C@H](CCN)C(=O)N[C@@H](CCCCN)C(=O)N[C@H](C(=O)N[C@@H](CCN)C(=O)N[C@@H](CCCNC(=N)N)C(=O)N[C@@H](Cc2ccc(O)cc2)C(=O)O)CSSC1(C)C [Example 75, Val-Hyp-Ile-Ile-Tyr-Pen-Asn-Arg-Dab-Ser-^DDab-Lys-Cys-Dab-Arg-Tyr] (HELM PEPTIDE1{V.[Hyp].I.I.Y.[Pen].N.R.[Dab].S.[NCC[C@@H](N[*:1])C(=O)[*:2]].K.C.[Dab].R.Y}$PEPTIDE1,PEPTIDE1,6:R3-13:R3$$$V2.0) |  |  | <1 | 0.125 | 0.0625 | 0.0625 |
